Data: ChEMBL document CHEMBL1148852, “Glucosamine sulfate promotes osteoblastic differentiation of MG-63 cells via anti-inflammatory effect” (2007)
Calls of active or inactive are those of the source. The calls are words filed in the database; no cut-off is given here.

Assays:
[1] = test system: MG-63; assay: Effect on osteocalcin secretion in human MG63 cells after 4 days; format: functional, cell-based
[2] = test system: RAW; assay: Inhibition of lipopolysaccharide stimulated TNFalpha synthesis in mouse RAW 264.7 cells; format: functional, cell-based
[3] = test system: MG-63; assay: Effect on alkaline phosphatase activity in human MG63 cells at 100 ug/mL after 24 hrs; format: functional, cell-based
[4] = test system: MG-63; assay: Cytotoxicity against human MG63 cells up to 1000 ug/ml after 48 hrs by MTT assay; format: functional, cell-based
[5] = test system: MG-63; assay: Increase in alkaline phosphatase activity in human MG63 cells at 5 ug/mL after 24 hrs; format: functional, cell-based
[6] = test system: MG-63; assay: Increase in alkaline phosphatase activity in human MG63 cells at 1000 ug/mL after 24 hrs; format: functional, cell-based
[7] = test system: MG-63; assay: Increase of mineralization in human MG63 cells after 7 days; format: functional, cell-based
[8] = test system: MG-63; assay: Increase of collagen synthesis in human MG63 cells after 7 days; format: functional, cell-based
[9] = test system: RAW; assay: Reduction of lipopolysaccharide stimulated IL1-beta synthesis in mouse RAW 264.7 cells; format: functional, cell-based
[10] = test system: RAW; assay: Reduction of lipopolysaccharide stimulated PGE2 synthesis in mouse RAW 264.7 cells at 10 ug/mL; format: functional, cell-based
[11] = test system: MG-63; assay: Increase of collagen synthesis in human MG63 cells at 10 ug/mL relative to glucosamine; format: functional
[12] = test system: MG-63; assay: Increase in alkaline phosphatase activity in human MG63 cells after 24 hrs; format: functional, cell-based

Row | Compound | Activity [1] | Activity [2] | Activity [3] | Activity [4] | Activity [5] | Activity [6] | Activity [7] | Activity [8] | Activity [9] | Activity [10] | Fold change [11] | Activity [12]
1 | N[C@@H]1[C@@H](O)[C@H](O)[C@@H](CO)O[C@H]1O | Dose-dependent effect | Active | inactive |  |  |  |  |  |  |  |  | 
2 | N[C@@H]1[C@@H](O)[C@H](O)[C@@H](COS(=O)(=O)O)O[C@H]1O | Dose-dependent effect | Active |  | Not toxic | Active | inactive | Active | Dose-dependent effect | Active | Active | 3 | Dose-dependent effect
